Patent US5789425A, “Imidazolidinone derivatives, their acid adducts and therapeutic drugs for senile dementia” (Kyorin Pharmaceutical Co., Ltd., priority 1993, dated 1998)
pIC50: −log10 of the molar value.

What was measured:
[1] = target: T1, M2 type muscarinic cholinergic receptor (Rattus norvegicus, UniProt P10980); assay: Radioligand binding experiment to M2 type muscarinic cholinergic receptor ([3H]-QNB); settings: 0.1 nM [3H]-QNB, rat brain stem synaptosome membrane; read-out: [^3 H]-QMB (M2) IC50
T1 construct: crude synaptosome membrane specimen was prepared from the brain stem (medulla oblongata-pons) of rat; from tissue; host or cells: rat brain stem (medulla oblongata-pons), crude synaptosomal membranes
T1 sequence (P10980 1-466): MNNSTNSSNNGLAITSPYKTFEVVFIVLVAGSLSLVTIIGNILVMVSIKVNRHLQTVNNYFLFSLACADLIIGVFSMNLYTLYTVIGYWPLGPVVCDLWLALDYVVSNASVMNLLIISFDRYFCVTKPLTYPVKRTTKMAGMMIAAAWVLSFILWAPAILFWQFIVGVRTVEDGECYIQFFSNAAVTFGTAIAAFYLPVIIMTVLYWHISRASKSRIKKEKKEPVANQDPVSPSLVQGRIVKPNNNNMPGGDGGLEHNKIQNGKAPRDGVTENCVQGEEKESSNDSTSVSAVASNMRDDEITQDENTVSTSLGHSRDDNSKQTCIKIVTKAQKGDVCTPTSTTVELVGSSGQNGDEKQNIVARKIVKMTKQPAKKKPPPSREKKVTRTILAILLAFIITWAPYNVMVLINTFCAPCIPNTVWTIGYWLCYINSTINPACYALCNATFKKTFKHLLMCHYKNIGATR

[2] = target: T2, M1 type muscarinic cholinergic receptor (Rattus norvegicus, UniProt P08482); assay: Radioligand binding experiment to M1 type muscarinic cholinergic receptor ([3H]-pirenzepine); settings: 1 nM [3H]-pirenzepine, rat brain synaptosome membrane, 60 minutes at 25° C.; read-out: [^3 H]-PZ (M1) IC50
T2 construct: crude synaptosome membrane specimen prepared from all brains (except cerebellum and brain stem) of rat; from tissue; host or cells: rat whole brain without cerebellum and brain stem, crude synaptosomal membranes
T2 sequence (P08482 1-460): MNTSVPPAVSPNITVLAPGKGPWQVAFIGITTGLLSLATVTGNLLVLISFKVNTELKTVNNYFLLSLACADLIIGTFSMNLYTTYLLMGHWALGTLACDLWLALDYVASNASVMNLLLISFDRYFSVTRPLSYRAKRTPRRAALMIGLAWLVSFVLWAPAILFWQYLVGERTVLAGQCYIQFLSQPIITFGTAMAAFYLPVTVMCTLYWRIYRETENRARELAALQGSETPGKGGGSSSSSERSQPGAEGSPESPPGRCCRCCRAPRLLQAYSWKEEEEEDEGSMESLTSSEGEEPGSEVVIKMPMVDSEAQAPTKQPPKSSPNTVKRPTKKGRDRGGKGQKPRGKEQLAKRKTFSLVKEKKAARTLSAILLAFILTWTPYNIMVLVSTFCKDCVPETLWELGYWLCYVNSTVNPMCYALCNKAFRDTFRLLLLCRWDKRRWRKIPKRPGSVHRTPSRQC
Protocol: 1) Radioligand binding experiment to M1 type muscarinic cholinergic receptor
Method: To a crude synaptosome membrane specimen prepared from all brains (except cerebellum and brain stem) of rat, [^3 H]-pirenzepine ([^3 H]-PZ, final concentration: 1 nM) and testing compound were added and the mixture was incubated for 60 minutes at 25° C. After stopped the reaction by filtered with suction, the radioactivity on filter was measured with liquid scintillation counter. The specific binding level of [^3 H]-pirenzepine was determined by subtracting the non-specific binding level in the presence of atropine (1 μM) from total binding level. Putting the [^3 H]-pirenzepine binding in the absence of testing compound on 100, the concentration of compound to decrease by 50% (IC50 value) was made an index of the binding activity of compound to M1 muscarinic receptor (refer to: J. A. D. M. Toner et al, Life Science, 1987, 40, 1981-1987).

[3] = tested on: pirenzepine-induced amnesia; assay: Testing on the pirenzepine-induced amnesia (step-through type passive avoidance); type: in vivo, Std:ddy strain male mice; settings: orally 60 minutes before acquisition trial; for Reaction latency Mean ± S.E.: retention trial 24 hours later, maximum 300 seconds, pirenzepine-treated mice
Source text: In vivo pharmacological test
Testing on the pirenzepine-induced amnesia
For the experiment animals, Std:ddy strain male mice with body weight of 24 to 33 g (age in week: 5) (Nippon SLC) were used. For the device, a step-through type passive avoidance apparatus (made by Ohara Medical Co., Ltd.) consisting of two light and dark rooms was used. In the acquisition trial, mouse was placed in the light room and, 10 seconds later, the partitive guillotine door was opened. As soon as the mouse moved into the dark room, the guillotine door was closed and electric shock of 43 to 44 V was given for 1 second through the metal grid bars of the floor. The retention trial was conducted 24 hours later since then. […] The induction of amnesia was performed by fixing a mouse at prone position without anesthetization at 20 minutes before learning acquisition trial and injecting pirenzepine (10 μg/2 μl/mouse bilaterally into cerebral ventricles using a microsyringe. Moreover, a group not to administered with pirenzepine before acquisition trial (non-amnesia comparison group) was also provided. The testing compound was administered orally at 60 minutes before acquisition trial. The improvement rate was calculated according to following equation and the results are shown in Table 8 (refer to: M. P. Callfield et al, J. Pharm. Pharmacol.) 1983, 35, 131-132). [formula]

[4] = tested on: M1 and M2 muscarinic receptors; assay: Selectivity to M1 receptor (ratio of IC50 values of M1 and M2 binding experiments); design: species or system rat
Protocol: 3) Selectivity to M1 receptor
This was determined from the ratio of IC50 values of testing compound obtained from the binding experiments of M1 and M2 muscarinic receptors. [formula]

| SMILES | pIC50 [1] | pIC50 [2] | Improvement rate ([3]; 3 mg/kg) | Reaction latency Mean ± S.E. ([3]; 3 mg/kg) | IC50 (M2)/C50 (M1) [4] | Improvement rate ([3]; 1 mg/kg) | Reaction latency Mean ± S.E. ([3]; 1 mg/kg) |
| --- | --- | --- | --- | --- | --- | --- | --- |
| O=C1N(C2=CCCN(Cc3ccccc3)C2)CCN1c1ccc([N+](=O)[O-])cc1 [Example 4, 1-[3-(1-Phenylmethyl-1,2,5,6-tetrahydropyridyl)]-3-(4-nitrophenyl)-2-imidazolidinone] | < 5.22 | 6.28 | 43.6% | 71.1 ± 30.2 s | > 11.3 |  |  |
| O=C1N(C2=CCCN(Cc3ccccc3)C2)CCN1c1ccc(Cl)cc1 [Example 17, 1-[3-(1-Phenylmethyl-1,2,5,6-tetrahydropyridyl)]-3-(4-chlorophenyl)-2-imidazolidinone] | < 5.22 | 6.43 | 68.8% | 164.2 ± 37.5 s | > 16.2 | 82.7% | 189.9 ± 52.8 s |
